The text below walks through data of ChEMBL document CHEMBL1201862, “PubChem BioAssay data set” (2004).

Where “and” joins values, the source holds several entries; their conditions need not be identical. Equal entries are not always repeated.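 Each compound was tested at five concentrations against cells in 96-well plates for 48 hours. Here, GI50 denotes the concentration required for 50% inhibition of growth.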 Calls of active or inactive are those of the source. Cut-off read from the data, not from the text of the source: active = GI50 up to about 1.1 µM and inactive = higher. Where only a bound is given, the exact number is not on record here.

Some test systems named below: NCI/ADR-RES; OVCAR-8; RPMI-8226; HL-60; COLO 205; HT-29; U-251; MOLT-4; Malme-3M; SF-539; HCC 2998; HOP-62; CCRF-CEM; HCT-116; IGROV-1; OVCAR-5; MCF7; DU-145; PC-3.
What all share (assay): inhibition of tumour cell growth, NCI panel, 48 h

`CC(C)CC[C@H](O)[C@@H](C)[C@H]1[C@@H](OC2OC(C)C(O)C(O)C2O)C[C@H]2[C@@H]3CC=C4C[C@@H](O)CC[C@]4(C)[C@H]3[C@@H](O)C[C@]12C` (stereo not given in full): the GI50 with NCI/ADR-RES is > 92.9 µM (inactive); with OVCAR-8, > 100 µM (inactive); in the experiment on RPMI-8226, 0.0631 µM (active); with HL-60, 0.098 µM (active); in the experiment on COLO 205 it was 1.8 µM (inactive); with HT-29, 1.75 µM (inactive). For the same compound, the GI50 in the experiment with U-251 was 0.0562 µM (active); in the experiment with MOLT-4 it was 0.0904 µM (active); with Malme-3M, 1.85 µM (inactive); in the experiment with SF-539, 0.0337 µM (active); in the experiment with HCC 2998, > 100 µM (inactive); in the experiment with HOP-62, 0.301 µM (active). For the same compound, the GI50 is 0.25 µM (active) with CCRF-CEM; 0.258 µM (active) with HCT-116; 4.42 µM (inactive) in the experiment on IGROV-1; > 24.9 µM (inactive) with OVCAR-5; 0.656 µM (active) in the experiment on MCF7.
On to `Cc1ccc(-n2cc(-c3ccc(Cl)cc3)c(C#N)c2N)cc1`, for which the GI50 is 17.3 µM (inactive) in the experiment with NCI/ADR-RES; 15.9 µM (inactive) with OVCAR-8; 4.1 µM (inactive) in the experiment on HL-60; 14.1 µM (inactive) in the experiment with COLO 205; 14 µM (inactive) in the experiment on HT-29; 25.2 µM (inactive) in the experiment on DU-145. Moreover, the GI50 in the experiment with U-251 was 14.2 µM (inactive); in the experiment on Malme-3M, 18 µM (inactive); with SF-539, 16.6 µM (inactive); in the experiment with HCC 2998 it was 14.9 µM (inactive); in the experiment on HOP-62, 17.9 µM (inactive); in the experiment with CCRF-CEM, 15.5 µM (inactive). For the same compound, the GI50 with HCT-116 was 14 µM (inactive); in the experiment on PC-3 it was 12.6 µM (inactive); in the experiment with IGROV-1, 15.9 µM (inactive); in the experiment with OVCAR-5 it was 15.1 µM (inactive); with MCF7, 14.6 µM (inactive).
Take `Cc1cc(C)c(N)c(CO)c1`: the GI50 with NCI/ADR-RES is > 100 µM (inactive); with OVCAR-8, > 100 µM (inactive); in the experiment on RPMI-8226, > 100 µM (inactive); in the experiment on COLO 205, 36.2 µM (inactive) and 46.7 µM (inactive); in the experiment on DU-145, > 100 µM (inactive); with U-251 it was 61.1 µM (inactive) and 56.1 µM (inactive). Further, the GI50 was > 100 µM (inactive) with MOLT-4; > 100 µM (inactive) in the experiment on Malme-3M; > 100 µM (inactive) in the experiment on SF-539; 74.5 µM (inactive) and 71.1 µM (inactive) in the experiment on HCC 2998; 38 µM (inactive) and > 53.5 µM (inactive) in the experiment with HOP-62; > 100 µM (inactive) with CCRF-CEM. The GI50 in the experiment with HCT-116 is 35.6 µM (inactive) and 19.3 µM (inactive); in the experiment on PC-3, > 100 µM (inactive).
Take `CC1(C)CC2=C(SC3C=CC=CC3N2)C(=O)C1C(=O)C(N)=O` (stereo not given): the GI50 with NCI/ADR-RES was > 100 µM (inactive); with OVCAR-8, > 100 µM (inactive); with HL-60, 44.1 µM (inactive); with COLO 205, > 100 µM (inactive); in the experiment on HT-29, > 100 µM (inactive); in the experiment on DU-145, > 100 µM (inactive). For the same compound, the GI50 in the experiment with U-251 was > 100 µM (inactive); with MOLT-4, 40.4 µM (inactive); in the experiment on SF-539 it was > 100 µM (inactive); with HCC 2998, > 100 µM (inactive); with HOP-62 it was > 100 µM (inactive); in the experiment on CCRF-CEM it was > 100 µM (inactive). Besides, the GI50 in the experiment on HCT-116 was > 100 µM (inactive); in the experiment on PC-3 it was 65.9 µM (inactive); in the experiment on IGROV-1, > 100 µM (inactive); with OVCAR-5, > 100 µM (inactive); with MCF7 it was > 100 µM (inactive).
